Assay results published in patent US12251374B2, “Fampridine TTS” (LTS Lohmann Therapie-Systeme AG, priority 2017, dated 2025).

What was measured:
[1] = Saturation concentration Cs of fampridine in polymer matrices ("sandwich" method by Liu); type: physicochemical; conditions: for Cs of fampridine: 7 days at room temperature
Protocol: The saturation concentration Cs of […] determined in various polymer matrices by the method described by Liu. (Liu, P., Gargiulo, P., Wong, J., and Novartis (1997). A Novel Method for Measuring Solubility of a Drug in an Adhesive, Pharmaceutical Research 14, page 317). In this method, known by specialists as the “sandwich” method, the saturation concentration is determined as follows: A laminate is constructed, having the following layer sequence: protective film-donor layer with active ingredient (dissolved and undissolved)-active ingredient-permeable membrane-acceptor layer without active ingredient-protective film. The two protective films are made of identical material; the matrix material of the donor and of the acceptor layer is likewise identical. The donor layer is produced by dissolving the active ingredient in a solution of the polymer in organic solvent. The concentration of the active ingredient must be selected to be high enough that an undissolved residue can be identified in the polymer matrix so that the saturation concentration Cs in the donor layer is reliably exceeded. This solution is applied to the protective film, and the process solvent is evaporated. The adhesive surface of the donor layer is then covered with the membrane. A dialysis tube made of regenerated cellulose (ZelluTrans®, from Roth, 46 mm flat width) that has been cut to size in the longitudinal direction is used as membrane. The acceptor layer is produced without active ingredient, similarly to the donor layer, and the membrane is applied to the other side. The laminates thus produced are then stored for 7 days at room temperature, during which time the active ingredient diffuses through the membrane into the acceptor layer. The active ingredient concentration in the […] is then determined. To this end, aliquots of approximately 1 cm^2 are punched out using a punching tool of standardised area. The membrane is then removed, the punched blanks without membrane are weighed, and their weight is recorded (m1). The punched blanks are then placed in organic solvent so as to remove the matrices. The backing layers are removed, washed, and dried, and their weight (m2) is determined. […] The concentration of […] solution is then calculated using an HPLC method, and its concentration in the […] is calculated. The saturation concentrations of […] different polymer matrices determined on the basis of this test approach are summarised in Table 1: […]

[2] = Solubility of fampridine base in organic solvents; type: physicochemical
Protocol: Since toluene polysiloxane solution is not commercially obtainable, BIO PSA 4201 from Dow Chemicals (polysiloxane in n-heptane) was used as starting material. The solvent was evaporated and the rubber-like polymer residue was dissolved with so much toluene that a solution with approximately 75% solids was obtained.

Nc1ccncc1 [fampridine, 4-aminopyridine]
saturation concentration Cs relative to neutral polymers ([1]; in acidic polymers vs neutral polymers): approximately 3 times higher
Cs of fampridine ([1]; in acrylate copolymer of 2-ethylhexylacrylate, butyl acrylate, vinyl acetate, acrylic acid, ethyl acetate): 7.4%
Cs of fampridine ([1]; in acrylate copolymer of 2-ethylhexylacrylate, vinyl acetate and 2-hydroxyethyl acrylate, ethyl acetate): 3.3%
saturation concentration Cs of fampridine ([1]; in neutral polymers (summary of Table 1)): approximately 3%
Cs of fampridine ([1]; in polyisobutylene, polymer dissolved in toluene): 2.2%
Cs of fampridine (in words) ([1]; in polysiloxane): especially low
Cs of fampridine ([1]; in polysiloxane, ethyl acetate): 0.3%
Cs of fampridine ([1]; in styrene-isoprene-styrene block copolymer, polymer dissolved in toluene): 2.7%
Solubility ([2]; in aromatic hydrocarbons): sufficiently soluble
Solubility ([2]; in n-heptane): not
